Results taken from PubChem BioAssay AID1918957 (Molecular Pharmacology Branch, DTP, NCI, 2023).
Calls of active or inactive are those of the source. The calls were made as follows: active = viability on the fitted dose curve at most 10% of control; inactive = the rest.

Test system: NCI-H1876 complex spheroid viability
Assay: Anticancer human tumor NCI-H1876 cell line growth inhibition [LSD1];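 as to IC50: spheroids exposed to compounds for one week before readout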;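 as to viability, T/C: spheroids exposed to compounds for one week before readout; 100% = DMSO vehicle-treated spheroids so lower means fewer viable cells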
Details: for IC50: curve of first compound; for viability, T/C: stronger effect = lower value
Outline: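 Multicellular complex spheroids of tumor cells with human endothelial cells (HUVEC) and mesenchymal stem cells; the LSD1 inhibitor iadademstat was combined with standard-of-care or investigational agents. Top concentration at or near clinical Cmax, half-log dilutions; final DMSO ≤0.25%.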

[1] = second compound 0.1 µM, first compound 0.000949 µM
[2] = second compound 0.1 µM, first compound 0.003 µM
[3] = second compound 0.1 µM, first compound 0.00949 µM
[4] = second compound 0.1 µM, first compound 0.03 µM
[5] = second compound 0.1 µM, first compound 0.0949 µM
[6] = second compound 0.1 µM, first compound 0.3 µM
[7] = second compound 0.316 µM, first compound 0.000949 µM
[8] = second compound 0.316 µM, first compound 0.003 µM
[9] = second compound 0.316 µM, first compound 0.00949 µM
[10] = second compound 0.316 µM, first compound 0.03 µM
[11] = second compound 0.316 µM, first compound 0.0949 µM
[12] = second compound 0.316 µM, first compound 0.3 µM
[13] = second compound 1 µM, first compound 0.000949 µM
[14] = second compound 1 µM, first compound 0.003 µM
[15] = second compound 1 µM, first compound 0.00949 µM
[16] = second compound 1 µM, first compound 0.03 µM
[17] = second compound 1 µM, first compound 0.0949 µM
[18] = second compound 1 µM, first compound 0.3 µM
[19] = second compound 3.16 µM, first compound 0.000949 µM
[20] = second compound 3.16 µM, first compound 0.003 µM
[21] = second compound 3.16 µM, first compound 0.00949 µM
[22] = second compound 3.16 µM, first compound 0.03 µM
[23] = second compound 3.16 µM, first compound 0.0949 µM
[24] = second compound 3.16 µM, first compound 0.3 µM
[25] = second compound 10 µM, first compound 0.000949 µM
[26] = second compound 10 µM, first compound 0.003 µM
[27] = second compound 10 µM, first compound 0.00949 µM
[28] = second compound 10 µM, first compound 0.03 µM
[29] = second compound 10 µM, first compound 0.0949 µM
[30] = second compound 10 µM, first compound 0.3 µM

## CC[C@@]1(O)C(=O)OCc2c1cc1n(c2=O)Cc2cc3c(CN(C)C)c(O)ccc3nc2-1 + NC1CCC(NC2CC2c2ccccc2)CC1
Second compound 0.1 µM
  IC50: 1.61 nM
Second compound 0.316 µM
  IC50: 2.15 nM
Second compound 1 µM
  IC50: 2.14 nM
Second compound 3.16 µM
  IC50: 2.18 nM
Second compound 10 µM
  IC50: 2.02 nM
Second compound 0.1 µM, first compound 0.000316 µM
  viability, T/C: 105%
Second compound 0.1 µM, first compound 0.001 µM
  outcome: inactive
Second compound 0.1 µM, first compound 0.00316 µM
  viability, T/C: 33.1%
Second compound 0.1 µM, first compound 0.01 µM
  viability, T/C: 23.1%
Second compound 0.1 µM, first compound 0.0316 µM
  viability, T/C: 12.1%
Second compound 0.1 µM, first compound 0.1 µM
  viability, T/C: 16.7%
Second compound 0.316 µM, first compound 0.000316 µM
  viability, T/C: 110%
Second compound 0.316 µM, first compound 0.001 µM
  viability, T/C: 94.2%
Second compound 0.316 µM, first compound 0.00316 µM
  viability, T/C: 27.5%
Second compound 0.316 µM, first compound 0.01 µM
  viability, T/C: 29.9%
Second compound 0.316 µM, first compound 0.0316 µM
  viability, T/C: 17.3%
Second compound 0.316 µM, first compound 0.1 µM
  viability, T/C: 14.7%
Second compound 1 µM, first compound 0.000316 µM
  viability, T/C: 113%
Second compound 1 µM, first compound 0.001 µM
  viability, T/C: 92.3%
Second compound 1 µM, first compound 0.00316 µM
  viability, T/C: 27.6%
Second compound 1 µM, first compound 0.01 µM
  viability, T/C: 31.8%
Second compound 1 µM, first compound 0.0316 µM
  viability, T/C: 18.4%
Second compound 1 µM, first compound 0.1 µM
  viability, T/C: 8.81%
Second compound 3.16 µM, first compound 0.000316 µM
  viability, T/C: 112%
Second compound 3.16 µM, first compound 0.001 µM
  viability, T/C: 102%
Second compound 3.16 µM, first compound 0.00316 µM
  viability, T/C: 25%
Second compound 3.16 µM, first compound 0.01 µM
  viability, T/C: 19.3%
Second compound 3.16 µM, first compound 0.0316 µM
  viability, T/C: 19%
Second compound 3.16 µM, first compound 0.1 µM
  viability, T/C: 9.21%
Second compound 10 µM, first compound 0.000316 µM
  viability, T/C: 112%
Second compound 10 µM, first compound 0.001 µM
  viability, T/C: 90.3%
Second compound 10 µM, first compound 0.00316 µM
  viability, T/C: 24.2%
Second compound 10 µM, first compound 0.01 µM
  viability, T/C: 24.3%
Second compound 10 µM, first compound 0.0316 µM
  viability, T/C: 20%
Second compound 10 µM, first compound 0.1 µM
  viability, T/C: 19.4%

## CCc1c2c(nc3ccc(O)cc13)-c1cc3c(c(=O)n1C2)COC(=O)[C@]3(O)CC + NC1CCC(NC2CC2c2ccccc2)CC1
Second compound 0.1 µM
  IC50: < 0.949 nM
Second compound 0.316 µM
  IC50: < 0.949 nM
Second compound 1 µM
  IC50: < 0.949 nM
Second compound 3.16 µM
  IC50: < 0.949 nM
Second compound 10 µM
  IC50: < 0.949 nM
[1]
  viability, T/C: 8.41%
[2]
  viability, T/C: 6.69%
[3]
  viability, T/C: 4.51%
[4]
  viability, T/C: 17%
[5]
  viability, T/C: 0.42%
[6]
  viability, T/C: 0.51%
[7]
  viability, T/C: 9.1%
[8]
  viability, T/C: 7.39%
[9]
  viability, T/C: 26.4%
[10]
  viability, T/C: 34.6%
[11]
  viability, T/C: 0.46%
[12]
  viability, T/C: 0.47%
[13]
  viability, T/C: 9.13%
[14]
  viability, T/C: 7.08%
[15]
  viability, T/C: 3.54%
[16]
  viability, T/C: 16.9%
[17]
  viability, T/C: 0.38%
[18]
  viability, T/C: 0.41%
[19]
  viability, T/C: 7.88%
[20]
  viability, T/C: 7%
[21]
  viability, T/C: 4.05%
[22]
  viability, T/C: 8.64%
[23]
  viability, T/C: 0.31%
[24]
  viability, T/C: 0.45%
[25]
  viability, T/C: 9.76%
[26]
  viability, T/C: 7.48%
[27]
  viability, T/C: 31.4%
[28]
  viability, T/C: 8.78%
[29]
  viability, T/C: 15.6%
[30]
  viability, T/C: 0.65%

## COc1cc(C2c3cc4c(cc3C(OC3OC5COC(C)OC5C(O)C3O)C3COC(=O)C23)OCO4)cc(OC)c1O (stereo not given) + NC1CCC(NC2CC2c2ccccc2)CC1
Second compound 0.1 µM
  IC50: 61.4 nM
Second compound 0.316 µM
  IC50: 49.2 nM
Second compound 1 µM
  IC50: 48.1 nM
Second compound 3.16 µM
  IC50: 50.9 nM
Second compound 10 µM
  IC50: 43.9 nM
[3]
  viability, T/C: 91.7%
[4]
  viability, T/C: 79.6%
[5]
  viability, T/C: 31.1%
[6]
  viability, T/C: 23.5%
Second compound 0.1 µM, first compound 0.949 µM
  viability, T/C: 12.2%
Second compound 0.1 µM, first compound 3 µM
  viability, T/C: 11.8%
[9]
  viability, T/C: 89%
[10]
  viability, T/C: 68.6%
[11]
  viability, T/C: 24.9%
[12]
  viability, T/C: 22.3%
Second compound 0.316 µM, first compound 0.949 µM
  viability, T/C: 19.2%
Second compound 0.316 µM, first compound 3 µM
  viability, T/C: 10.7%
[15]
  viability, T/C: 91.7%
[16]
  viability, T/C: 66.4%
[17]
  viability, T/C: 26%
[18]
  viability, T/C: 22%
Second compound 1 µM, first compound 0.949 µM
  viability, T/C: 14.4%
Second compound 1 µM, first compound 3 µM
  viability, T/C: 18.9%
[21]
  viability, T/C: 94.5%
[22]
  viability, T/C: 64.8%
[23]
  viability, T/C: 29.7%
[24]
  viability, T/C: 29.5%
Second compound 3.16 µM, first compound 0.949 µM
  viability, T/C: 18.2%
Second compound 3.16 µM, first compound 3 µM
  viability, T/C: 13.7%
[27]
  viability, T/C: 82.7%
[28]
  viability, T/C: 62.5%
[29]
  viability, T/C: 24.3%
[30]
  viability, T/C: 23.4%
Second compound 10 µM, first compound 0.949 µM
  viability, T/C: 18.1%
Second compound 10 µM, first compound 3 µM
  viability, T/C: 14.2%

## Nc1ccn(C2OC(CO)C(O)C2(F)F)c(=O)n1 (stereo not given) + NC1CCC(NC2CC2c2ccccc2)CC1
Second compound 0.1 µM
  IC50: 6.89 nM
Second compound 0.316 µM
  IC50: 6.69 nM
Second compound 1 µM
  IC50: 6.77 nM
Second compound 3.16 µM
  IC50: 6.75 nM
Second compound 10 µM
  IC50: 6.25 nM
[1]
  viability, T/C: 111%
[2]
  viability, T/C: 101%
[3]
  viability, T/C: 30.3%
[4]
  viability, T/C: 22.3%
[5]
  viability, T/C: 22.9%
[6]
  viability, T/C: 10.8%
[7]
  viability, T/C: 104%
[8]
  viability, T/C: 96%
[9]
  viability, T/C: 29.7%
[10]
  viability, T/C: 18.1%
[11]
  viability, T/C: 11.7%
[12]
  viability, T/C: 9.66%
[13]
  viability, T/C: 111%
[14]
  viability, T/C: 96.7%
[15]
  viability, T/C: 30.3%
[16]
  viability, T/C: 18.6%
[17]
  viability, T/C: 12.1%
[18]
  viability, T/C: 11.3%
[19]
  viability, T/C: 110%
[20]
  viability, T/C: 107%
[21]
  viability, T/C: 26.2%
[22]
  viability, T/C: 23.2%
[23]
  viability, T/C: 17.9%
[24]
  viability, T/C: 9.56%
[25]
  viability, T/C: 109%
[26]
  viability, T/C: 90.8%
[27]
  viability, T/C: 26.4%
[28]
  viability, T/C: 23.5%
[29]
  viability, T/C: 17.8%
[30]
  viability, T/C: 10.5%
